Assays:
[1] = Inhibition of alpha-glucosidase (unknown origin) using p-nitrophenyl-alpha-D-glucopyranoside as substrate preincubated for 10 mins followed by substrate addition and measured after 20 mins by spectrophotometric analysis; design: species or system Homo sapiens
[2] = target: T1, Alpha-glucosidase (Saccharomyces cerevisiae S288c, UniProt P53341+P38158+P07265); test: Inhibition of Saccharomyces cerevisiae alpha-glucosidase by absorbance based microplate reader analysis; type: protein assay
[3] = Inhibition of alpha-glucosidase (unknown origin) using pNPG as substrate assessed as inhibition constant by spectrophotometric analysis; design: species or system Homo sapiens
[4] = Inhibition of alpha-glucosidase (unknown origin) using pNPG as substrate by spectrophotometric analysis; design: species or system Homo sapiens
[5] = target: T1, Alpha-glucosidase; test: Inhibition of Saccharomyces cerevisiae alpha-glucosidase using p-nitrophenyl-alpha-D-glucopyranoside as substrate preincubated for 5 mins followed by substrate addition and measured after 5 mins by spectrophotometric analysis; type: protein assay
[6] = Inhibition of alpha-glucosidase (unknown origin) using p-nitrophenyl-alpha-D-glucopyranoside as substrate preincubated for 15 mins followed by substrate addition and measured after 30 mins by absorbance based analysis; design: species or system Homo sapiens
[7] = target: T1, Alpha-glucosidase; test: Inhibition of Saccharomyces cerevisiae alpha-glucosidase using p-nitrophenyl-alpha-D-glucopyranoside as substrate preincubated for 15 mins followed by substrate addition and measured after 30 mins by multiplate reader analysis; type: protein assay
[8] = target: T1, Alpha-glucosidase; test: Inhibition of Saccharomyces cerevisiae alpha-glucosidase using p-nitrophenyl-alpha-D-glucopyranoside as substrate preincubated for 10 mins followed by substrate addition and measured by spectrophotometric analysis; type: protein assay
[9] = target: T1, Alpha-glucosidase; test: Inhibition of Saccharomyces cerevisiae alpha-glucosidase using p-nitrophenyl-alpha-D-glucopyranoside as substrate assessed as inhibition constant preincubated for 10 mins followed by substrate addition and measured by spectrophotometric analysis; type: protein assay
[10] = target: T1, Alpha-glucosidase; test: Inhibition of Saccharomyces cerevisiae alpha-glucosidase using p-nitrophenyl-alpha-D-glucopyranoside as substrate preincubated for 5 mins followed by substrate addition and measured after 5 mins by absorbance based analysis; type: protein assay
[11] = Inhibition of alpha-glucosidase (unknown origin) using p-nitrophenyl-alpha-D-glucopyranoside as substrate preincubated for 15 mins followed by substrate addition and measured after 30 mins by spectrophotometric analysis; design: species or system Homo sapiens
[12] = organism: Homo sapiens; test: Inhibition of alpha-glucosidase (unknown origin) using p-nitrophenylglucopyranoside as substrate at 100 microg/ml preincubated for 10 mins followed by substrate addition and measured by absorbance based analysis relative to control; conditions: dose 100.0 µg/ml
[13] = Inhibition of alpha-glucosidase (unknown origin) using p-nitrophenylglucopyranoside as substrate preincubated for 10 mins followed by substrate addition and measured by absorbance based analysis; design: species or system Homo sapiens
[14] = target: T1, Alpha-glucosidase; test: Inhibition of Saccharomyces cerevisiae alpha-glucosidase using pNPG as substrate by spectrophotometric analysis; type: protein assay
[15] = Inhibition of alpha-glucosidase (unknown origin) using p-nitrophenylglucopyranoside as substrate preincubated for 10 mins followed by substrate addition and measured after 30 mins by absorbance based microplate reader analysis; design: species or system Homo sapiens
[16] = target: T1, Alpha-glucosidase; test: Inhibition of Saccharomyces cerevisiae alpha-glucosidase using p-nitrophenyl-alpha-D-glucopyranoside as substrate preincubated for 15 mins followed by substrate addition and measured after 20 mins by spectrophotometric analysis; type: protein assay
[17] = Inhibition of Saccharomyces cerevisiae alpha-glucosidase type I using p-nitrophenyl-alpha-D-glucopyranoside as substrate preincubated for 10 mins followed by substrate addition and measured after 20 mins by spectrophotometric analysis
[18] = Inhibition of alpha-glucosidase (unknown origin) assessed as reduction in starch digestion preincubated with alpha-amylase for 20 mins followed by alpha-glucosidase addition and measured after 30 mins by absorbance based analysis; design: species or system Homo sapiens
[19] = Inhibition of alpha-glucosidase (unknown origin) using p-nitrophenyl-alpha-D-glucopyranoside as substrate preincubated for 15 mins followed by substrate addition and measured after 15 mins by absorbance based microplate reader analysis; design: species or system Homo sapiens
[20] = target: T1, Alpha-glucosidase; test: Inhibition of Saccharomyces cerevisiae alpha-glucosidase; type: protein assay
[21] = target: T1, Alpha-glucosidase; test: Competitive inhibition of Saccharomyces cerevisiae alpha-glucosidase assessed as inhibition constant; type: protein assay
[22] = target: Alpha-glucosidase (Saccharomyces cerevisiae S288c) (UniProt P53341+P38158+P07265); test: Potency index, ratio of acarbose IC50 to test compound IC50 for inhibition of Saccharomyces cerevisiae alpha-glucosidase; type: protein assay
[23] = target: T1, Alpha-glucosidase; test: Inhibition of Saccharomyces cerevisiae alpha-glucosidase using p-nitrophenyl-alpha-D-glucopyranoside as substrate incubated for 30 mins by spectrophotometric analysis; type: protein assay
[24] = Inhibition of alpha-glucosidase (unknown origin) using p-nitrophenyl-alpha-D-glucopyranoside as substrate preincubated for 15 mins followed by substrate addition and measured after 30 mins by multiplate spectrophotometric analysis; design: species or system Homo sapiens
[25] = target: T1, Alpha-glucosidase; test: Competitive inhibition of Saccharomyces cerevisiae alpha-glucosidase using pNPG as substrate assessed as inhibition constant preincubated for 10 mins followed by substrate addition and measured after 20 mins by spectrophotometric analysis; type: protein assay
[26] = target: T1, Alpha-glucosidase; test: Inhibition of Saccharomyces cerevisiae alpha-glucosidase using pNPG as substrate preincubated for 10 mins followed by substrate addition and measured after 20 mins by spectrophotometric analysis; type: protein assay
[27] = Inhibition of alpha-glucosidase (unknown origin) using pNPG as substrate preincubated for 15 mins followed by substrate addition and measured after 30 mins by microplate reader based analysis; design: species or system Homo sapiens

**Q.** For CC(=O)c1c(-c2ccccc2)cn(CC(C)C)c1C, which IC50 [1] is on record?
**A.** Its IC50 is 0.77 µM.

**Q.** With COc1ccc(/N=C2/NC(=O)/C(=C/c3cn(-c4ccccc4)nc3-c3ccc(OC)cc3)S2)cc1 as the compound, how does the IC50 [2] read?
**A.** Its IC50 is 9.9 µM.

**Q.** For Cc1cc(C)cc(CS(=O)(=O)c2ccc(NC(=O)Nc3cccc(Cl)c3)cc2)c1, which Ki [3] is on record?
**A.** Its Ki is 0.0128 µM.

**Q.** And the IC50 [4]?
**A.** The IC50 was 0.00905 µM.

**Q.** Which IC50 [5] does the source give for CCCSc1nnc(C(C)c2ccc3cc(OC)ccc3c2)n1-c1ccc(Cl)c(Cl)c1 (configuration not stated) here?
**A.** The IC50 was 1.1 µM.

**Q.** Which IC50 [6] does the source give for O=C1Nc2cc(Br)ccc2/C1=N/Nc1nc(-c2ccc(Br)cc2)cs1 here?
**A.** The IC50 was 20.8 µM.

**Q.** Which IC50 [2] does the source give for COc1ccc(/N=C2/NC(=O)/C(=C/c3cn(-c4ccccc4)nc3-c3ccc([N+](=O)[O-])cc3)S2)cc1 here?
**A.** Its IC50 is 4.48 µM.

**Q.** With O=C(Cn1cc(Cn2c3ccccc3c3ccccc32)nn1)c1ccc(O)c(Br)c1 as the compound, how does the IC50 [7] read?
**A.** The IC50 was 1 µM.

**Q.** What does the source list for O=C1NC(c2ccc(O)cc2)Nc2ccccc21 (configuration not stated)?
**A.** IC50 [8]: 1.35 µM; Ki [9]: 0.42 µM

**Q.** Which IC50 [10] does the source give for O=C(N/N=C/c1ccc(O)c(O)c1)c1cc2ccccc2oc1=O here?
**A.** Its IC50 is 1.1 µM.

**Q.** With COc1ccc(-c2cn(C[C@@H](C)Oc3ccc(-c4ccc(C(F)(F)F)cc4)cc3OC)nn2)cc1 as the compound, how does the IC50 [11] read?
**A.** Its IC50 is 14.2 µM.

**Q.** Which results are given for Nc1ccccc1-c1nn(CNN2CCOCC2)c(=S)o1?
**A.** inhibition [12]: 85%; IC50 [13]: 53.6 µM

**Q.** Which IC50 [14] does the source give for CCn1cc(C(=O)CC(c2ccc3ccccc3c2)C2C(=O)N(C)C(=O)N(C)C2=O)c2ccccc21 (configuration not stated) here?
**A.** Its IC50 is 13.02 µM.

**Q.** Which IC50 [15] does the source give for CC(=O)Nc1ccc(-c2[nH]c3ccc(F)cc3c2-c2nc(-c3ccccc3)c(-c3ccccc3)n2-c2ccccc2)cc1 here?
**A.** Its IC50 is 8.37 µM.

**Q.** For Oc1ccc(-c2nc3cc(N4CCOCC4)ccc3[nH]2)cc1, which IC50 [16] is on record?
**A.** Its IC50 is 3.4 µM.

**Q.** For O=[N+]([O-])c1ccc(-c2nn(-c3ccccc3)cc2-c2nc(-c3ccccc3)c(-c3ccccc3)n2-c2ccc(Br)cc2)cc1, which IC50 [17] is on record?
**A.** Its IC50 is 33.6 µM.

**Q.** For C=c1[nH]c(=O)s/c1=C/c1ccc(Oc2nc3ccccc3n2Cc2ccc(Cl)cc2)cc1, which IC50 [18] is on record?
**A.** Its IC50 is 0.54 µM.

**Q.** Which IC50 [19] does the source give for COc1cc2c(=O)c(-c3ccccc3)coc2cc1O/C(=C\N(C)C)C(=O)c1ccc(Cl)cc1 here?
**A.** Its IC50 is 890 µM.

**Q.** Which results are given for NS(=O)(=O)c1ccc(Cc2nc(Cc3ccc(S(N)(=O)=O)cc3)nc(-c3cccc([N+](=O)[O-])c3)n2)cc1?
**A.** Ki [3]: 41.7 µM; IC50 [4]: 41.7 µM

**Q.** What does the source list for O=C(COc1ccc(C(c2c(O)c3ccccc3oc2=O)c2c(O)c3ccccc3oc2=O)cc1)Nc1ccc(Br)cc1?
**A.** IC50 [20]: 41.73 µM; Ki [21]: 44 µM; Ratio IC50 [22]: 18

**Q.** Which IC50 [23] does the source give for COc1cc2oc(=O)ccc2cc1-c1c(O)cc(O)c2c1O/C(=C\c1ccccc1)C2=O here?
**A.** The IC50 was 3.55 µM.

**Q.** With CCCCCCSc1nc2ccccc2n1CC(=O)NN1C(=O)CSC1c1ccc([N+](=O)[O-])cc1 (configuration not stated) as the compound, how does the IC50 [24] read?
**A.** The IC50 was 5.22 µM.

**Q.** With O=C(CCCSc1nc2ccccc2s1)Nc1cccc2ccccc12 as the compound, how does the IC50 [23] read?
**A.** Its IC50 is 11 µM.

**Q.** For CCCCCCSc1nc2ccccc2n1CC(=O)NN1C(=O)CSC1c1ccc(C=O)cc1 (configuration not stated), which IC50 [24] is on record?
**A.** Its IC50 is 5.69 µM.

**Q.** For Clc1ccc(C2=NOC(c3ccccc3)N2c2ccc(Cl)cc2)cc1 (configuration not stated), which Ki [25] is on record?
**A.** Its Ki is 122 µM.

**Q.** What about the IC50 [26] of the same compound?
**A.** The IC50 was 215 µM.

**Q.** Which IC50 [27] does the source give for Oc1ccc(/C=N\c2nnc(-c3ccc(O)cc3)o2)cc1 here?
**A.** Its IC50 is 0.3 µM.

— ChEMBL document CHEMBL5360534, “Synthetic α-glucosidase inhibitors as promising anti-diabetic agents: Recent developments and future challenges” (Eur J Med Chem, 2023)
